Test system: harvested pig hearts
Conditions: 500 μmol/L lidocaine in cardioplegic compositions, combined data of Part 1 and Part 2 (1, 3, 5 hours)
Description: Part 1: The next study assessed if there were potential incremental benefits to increasing the duration of reperfusion of harvested donor hearts with a mildly acidic hypocalcemic oxygenated cardioplegic composition.
The sample solutions used for these tests were the same as Sample solutions IIIC described above.

With `CCN(CC)CC(=O)Nc1c(C)cccc1C` [lidocaine] the “effect of lidocaine concentration on donor heart myocardial function” value was “debilitating effects”.
